Experiment: recombinant barcode read abundance after kanamycin selection (control-corrected) (log10(CPM+1)); higher = more efficient recombination; sequences stand for … in AGTGCAGAGAAAATCGGCCAGTTTTCTCTGCCTGCAGTCCGCATGCCGT…AGATTTATGCAGCGGACTGCCTTTCTCCCAAAGTGATAAACCGGACAGTATCATGGACCGGTTTTCCCGGTAATCCGTATTTGCAAGGTTGGTTTCACT; site = the 11-nt target
Procedure, shortened: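 Recombination efficiency comes from barcode counts at recombinant junctions, converted to counts per million, averaged and corrected against the control. Values appear as log10(CPM+1). They were obtained from a pooled E. coli screen in which each oligo paired a target with an IS621 bridge RNA target-binding loop, and cells were plated in duplicate on chloramphenicol/ampicillin LB agar or on chloramphenicol/ampicillin/kanamycin with 0.1 mM IPTG.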
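Further: IS621 recombinase and bridge RNA in Escherichia coli cells.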

Sequence	recombinant barcode read abundance (log10)
GTGCACTCTTGGGTTCTAACCTGTTGCGG (site GTGCACTCTCC)	2.13
GTGCTAACTTGGGTTCTAACCTGTTGCCA (site ATGCTAACTAG)	0.0637
GTGCTAACTTGGGTTCTAACCTGTTGCCA (site GTGCTAACTTG)	0.626
GTGGAAGCTTGGGTTCTAACCTGTTGCCA (site GTGAAAGCTTG)	0.158
GTGGAAGCTTGGGTTCTAACCTGTTGCCA (site GTGGAAGCTTG)	0.238
GTGGAGTCTTGGGTTCTAACCTGTTGCCT (site GTAGAGTCTAA)	0.577
GTGGAGTCTTGGGTTCTAACCTGTTGCCT (site GTGGAGTCTAG)	2.5
GTGGGAACTTGGGTTCTAACCTGTTGCTT (site GTGGGAACTAA)	1.97
GTGGGAACTTGGGTTCTAACCTGTTGCTT (site TCCTATCCTTC)	0.0252
GTGGTACCTTGGGTTCTAACCTGTTGCAT (site ACACGGACTTA)	0.0235
GTGGTACCTTGGGTTCTAACCTGTTGCAT (site GTGGTACCTAT)	2.48
GTGGTACCTTGGGTTCTAACCTGTTGCCT (site GTGGTAACTAG)	0.885
GTGGTACCTTGGGTTCTAACCTGTTGCCT (site GTGGTACCTAG)	2.77
GTGGTACCTTGGGTTCTAACCTGTTGCCT (site GTGGTAGCTAG)	0.0565
GTGGTACCTTGGGTTCTAACCTGTTGCCT (site GTGGTATCTAG)	0.391
GTGGTTCCTTGGGTTCTAACCTGTTGCCT (site GTGGTTCCTAG)	1.61
GTGGTTCCTTGGGTTCTAACCTGTTGCCT (site GTTGGTCCTAG)	0.112
GTGTACCCTTGGGTTCTAACCTGTTGCCT (site GAGTACCCTAG)	0.64
GTGTACCCTTGGGTTCTAACCTGTTGCCT (site GCGTACCCTAG)	1.13

Sequence	recombinant barcode read abundance (log10)
GTGTACCCTTGGGTTCTAACCTGTTGCCT (site GGGTACCCTAG)	0.068
GTGTACCCTTGGGTTCTAACCTGTTGCCT (site GTGTACCCTAG)	0.918
GTGTACCCTTGGGTTCTAACCTGTTGCGC (site GTGTACCCTAC)	0.587
GTGTACCCTTGGGTTCTAACCTGTTGCGC (site GTGTACCCTCC)	0.141
GTGTACCCTTGGGTTCTAACCTGTTGCGC (site GTGTACCCTGC)	3.13
GTGTACCCTTGGGTTCTAACCTGTTGCGC (site GTGTACCCTTC)	0.31
GTGTACCCTTGGGTTCTAACCTGTTGCGT (site GTGTACCCTAC)	3.59
GTGTACCCTTGGGTTCTAACCTGTTGCGT (site GTGTACCCTCC)	1.66
GTGTACCCTTGGGTTCTAACCTGTTGCGT (site GTGTACCCTGC)	2.29
GTGTACCCTTGGGTTCTAACCTGTTGCGT (site GTGTACCCTTC)	0.185
GTGTATACTTGGGTTCTAACCTGTTGCAT (site GTGTATACTAT)	0.589
GTGTATACTTGGGTTCTAACCTGTTGCAT (site TAACTAGCTTA)	0.0503
GTGTATCCTTGGGTTCTAACCTGTTGCTT (site GTGCCTCCTAA)	0.0308
GTGTATCCTTGGGTTCTAACCTGTTGCTT (site GTGTATCCTAA)	0.664
GTGTCAACTTGGGTTCTAACCTGTTGCCT (site GTGTCAACTAG)	0.343
GTGTCAACTTGGGTTCTAACCTGTTGCCT (site GTGTCACCTAG)	0.0106
GTGTCAACTTGGGTTCTAACCTGTTGCCT (site GTGTCAGCTAG)	0.0423
GTGTCAACTTGGGTTCTAACCTGTTGCCT (site GTGTCATCTAG)	0.0225
GTGTCAGCTTGGGTTCTAACCTGTTGCCT (site GTGTCAACTAG)	0.166
